Measurements published in ChEMBL document CHEMBL4049403, “Oligo-aspartic acid conjugates with benzo[c][2,6]naphthyridine-8-carboxylic acid scaffold as picomolar inhibitors of CK2” (Bioorg Med Chem, 2017).
Where a SMILES comes first, the peptide text is derived from it. The star is where a group is joined. X1 = O=C(O)c1ccc2c(c1)nc(OCCCCCCCCC(=O)*)c1ccncc12

What was measured:
[1] = target: Homeodomain-interacting protein kinase 2 (Homo sapiens) (UniProt Q9H2X6); assay: Inhibition of human HIPK2 assessed as residual activity at 1 uM in presence of 33P-ATP by filter-binding assay relative to control
[2] = target: Dual specificity tyrosine-phosphorylation-regulated kinase 1A (Homo sapiens) (UniProt Q13627); assay: Inhibition of human DYRK1A assessed as residual activity at 1 uM in presence of 33P-ATP by filter-binding assay relative to control
[3] = target: AMP-activated protein kinase, AMPK (Homo sapiens) (UniProt P54646+O43741+P54619+Q9UGJ0+Q9Y478+Q13131+Q9UGI9); assay: Inhibition of human AMPK assessed as residual activity at 1 uM in presence of 33P-ATP by filter-binding assay relative to control
[4] = target: Mitogen-activated protein kinase kinase kinase 11 (Homo sapiens) (UniProt Q16584); assay: Inhibition of human MLK3 assessed as residual activity at 1 uM in presence of 33P-ATP by filter-binding assay relative to control
[5] = target: Serine/threonine-protein kinase PLK1 (Homo sapiens) (UniProt P53350); assay: Inhibition of human PLK1 assessed as residual activity at 1 uM in presence of 33P-ATP by filter-binding assay relative to control
[6] = target: Glycogen synthase kinase-3 beta (Homo sapiens) (UniProt P49841); assay: Inhibition of human GSK3beta assessed as residual activity at 1 uM in presence of 33P-ATP by filter-binding assay relative to control
[7] = target: Serine/threonine-protein kinase TBK1 (Homo sapiens) (UniProt Q9UHD2); assay: Inhibition of human TBK1 assessed as residual activity at 1 uM in presence of 33P-ATP by filter-binding assay relative to control
Sequence of Serine/threonine-protein kinase TBK1 (Homo sapiens) (Q9UHD2 whole entry): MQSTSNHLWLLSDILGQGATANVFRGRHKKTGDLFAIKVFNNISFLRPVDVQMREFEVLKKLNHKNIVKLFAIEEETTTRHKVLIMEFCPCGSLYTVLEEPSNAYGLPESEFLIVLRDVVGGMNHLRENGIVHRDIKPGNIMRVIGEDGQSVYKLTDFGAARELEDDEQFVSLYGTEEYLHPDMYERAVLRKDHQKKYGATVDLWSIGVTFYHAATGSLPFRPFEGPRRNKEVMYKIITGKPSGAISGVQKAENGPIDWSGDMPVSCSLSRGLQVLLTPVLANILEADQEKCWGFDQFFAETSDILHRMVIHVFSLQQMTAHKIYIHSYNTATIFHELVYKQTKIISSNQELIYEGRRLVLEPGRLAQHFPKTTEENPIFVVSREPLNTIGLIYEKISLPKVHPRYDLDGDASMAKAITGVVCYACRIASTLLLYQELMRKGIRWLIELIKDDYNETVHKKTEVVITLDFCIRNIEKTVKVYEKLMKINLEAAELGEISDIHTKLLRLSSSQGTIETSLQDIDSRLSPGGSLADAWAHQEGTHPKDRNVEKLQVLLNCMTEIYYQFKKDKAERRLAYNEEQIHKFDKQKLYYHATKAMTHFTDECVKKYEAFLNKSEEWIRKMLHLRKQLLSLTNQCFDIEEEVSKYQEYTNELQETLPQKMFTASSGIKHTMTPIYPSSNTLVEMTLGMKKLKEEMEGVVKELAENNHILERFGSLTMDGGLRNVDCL

[8] = target: Mitogen-activated protein kinase 7 (Homo sapiens) (UniProt Q13164); assay: Inhibition of human ERK5 assessed as residual activity at 1 uM in presence of 33P-ATP by filter-binding assay relative to control
[9] = target: Serine/threonine-protein kinase pim-1 (Homo sapiens) (UniProt P11309); assay: Inhibition of human PIM1 assessed as residual activity at 1 uM in presence of 33P-ATP by filter-binding assay relative to control
[10] = target: Serine/threonine-protein kinase TAO1 (Homo sapiens) (UniProt Q7L7X3); assay: Inhibition of human TAO1 assessed as residual activity at 1 uM in presence of 33P-ATP by filter-binding assay relative to control
Sequence of Serine/threonine-protein kinase TAO1 (Homo sapiens) (Q7L7X3 whole entry): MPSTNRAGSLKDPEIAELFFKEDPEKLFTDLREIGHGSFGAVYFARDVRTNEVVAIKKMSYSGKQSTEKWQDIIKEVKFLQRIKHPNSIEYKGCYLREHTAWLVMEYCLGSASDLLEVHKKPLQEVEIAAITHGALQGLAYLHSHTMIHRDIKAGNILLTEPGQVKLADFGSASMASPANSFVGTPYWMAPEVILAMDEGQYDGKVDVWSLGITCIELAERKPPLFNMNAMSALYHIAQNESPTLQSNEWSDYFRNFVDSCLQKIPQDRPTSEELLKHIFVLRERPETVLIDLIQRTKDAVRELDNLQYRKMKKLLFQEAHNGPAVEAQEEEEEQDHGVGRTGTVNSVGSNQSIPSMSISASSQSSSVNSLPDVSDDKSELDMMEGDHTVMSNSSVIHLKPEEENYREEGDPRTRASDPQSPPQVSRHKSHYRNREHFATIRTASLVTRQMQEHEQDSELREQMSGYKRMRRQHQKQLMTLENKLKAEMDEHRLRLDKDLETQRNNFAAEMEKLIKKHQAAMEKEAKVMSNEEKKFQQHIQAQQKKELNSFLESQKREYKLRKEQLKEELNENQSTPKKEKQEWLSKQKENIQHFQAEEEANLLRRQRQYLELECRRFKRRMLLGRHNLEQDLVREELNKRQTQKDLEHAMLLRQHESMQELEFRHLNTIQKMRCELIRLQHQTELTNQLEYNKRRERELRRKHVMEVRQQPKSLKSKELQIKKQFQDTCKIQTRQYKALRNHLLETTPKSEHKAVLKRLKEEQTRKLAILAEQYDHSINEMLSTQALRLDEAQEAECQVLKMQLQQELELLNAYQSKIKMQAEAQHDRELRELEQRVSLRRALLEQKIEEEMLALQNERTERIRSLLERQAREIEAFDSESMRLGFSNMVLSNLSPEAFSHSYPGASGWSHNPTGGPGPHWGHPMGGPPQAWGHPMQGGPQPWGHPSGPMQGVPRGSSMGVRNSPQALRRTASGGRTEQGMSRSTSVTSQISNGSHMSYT

[11] = target: MAP kinase-interacting serine/threonine-protein kinase 1 (Homo sapiens) (UniProt Q9BUB5); assay: Inhibition of human MNK1 assessed as residual activity at 1 uM in presence of [33P]ATP by filter binding assay relative to control
Sequence of MAP kinase-interacting serine/threonine-protein kinase 1 (Homo sapiens) (Q9BUB5 whole entry, looked up): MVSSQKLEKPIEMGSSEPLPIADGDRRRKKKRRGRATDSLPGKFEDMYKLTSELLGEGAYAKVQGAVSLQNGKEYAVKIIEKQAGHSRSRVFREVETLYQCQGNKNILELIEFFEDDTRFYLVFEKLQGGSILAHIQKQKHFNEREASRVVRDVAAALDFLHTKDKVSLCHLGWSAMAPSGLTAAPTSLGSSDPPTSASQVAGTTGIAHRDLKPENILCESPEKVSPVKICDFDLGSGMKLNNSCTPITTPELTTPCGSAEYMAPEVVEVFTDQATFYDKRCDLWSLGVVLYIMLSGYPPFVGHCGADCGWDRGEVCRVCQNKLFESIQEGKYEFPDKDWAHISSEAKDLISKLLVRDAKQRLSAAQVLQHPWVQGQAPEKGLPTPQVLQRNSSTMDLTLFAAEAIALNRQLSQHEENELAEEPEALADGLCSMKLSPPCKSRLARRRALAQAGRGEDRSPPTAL

[12] = target: Serine/threonine-protein kinase MARK1 (Homo sapiens) (UniProt Q9P0L2); assay: Inhibition of human MARK1 assessed as residual activity at 1 uM in presence of [33P]ATP by filter binding assay relative to control
[13] = target: Calcium/calmodulin-dependent protein kinase kinase 2 (Homo sapiens) (UniProt Q96RR4); assay: Inhibition of human CAMKKb assessed as residual activity at 1 uM in presence of [33P]ATP by filter binding assay relative to control
[14] = target: TGF-beta receptor type-1 (Homo sapiens) (UniProt P36897); assay: Inhibition of human TGFBR1 assessed as residual activity at 1 uM in presence of [33P]ATP by filter binding assay relative to control
[15] = target: Homeodomain-interacting protein kinase 1 (Homo sapiens) (UniProt Q86Z02); assay: Inhibition of human HIPK1 assessed as residual activity at 1 uM in presence of [33P]ATP by filter binding assay relative to control
[16] = target: Ephrin type-B receptor 4 (Homo sapiens) (UniProt P54760); assay: Inhibition of human EPHB4 assessed as residual activity at 1 uM in presence of [33P]ATP by filter binding assay relative to control
[17] = target: Ephrin type-A receptor 2 (Homo sapiens) (UniProt P29317); assay: Inhibition of human EPHA2 assessed as residual activity at 1 uM in presence of [33P]ATP by filter binding assay relative to control
[18] = target: Serine/threonine-protein kinase PINK1, mitochondrial (Homo sapiens) (UniProt Q9BXM7); assay: Inhibition of human PINK assessed as residual activity at 1 uM in presence of [33P]ATP by filter binding assay relative to control
Sequence of Serine/threonine-protein kinase PINK1, mitochondrial (Homo sapiens) (Q9BXM7 whole entry): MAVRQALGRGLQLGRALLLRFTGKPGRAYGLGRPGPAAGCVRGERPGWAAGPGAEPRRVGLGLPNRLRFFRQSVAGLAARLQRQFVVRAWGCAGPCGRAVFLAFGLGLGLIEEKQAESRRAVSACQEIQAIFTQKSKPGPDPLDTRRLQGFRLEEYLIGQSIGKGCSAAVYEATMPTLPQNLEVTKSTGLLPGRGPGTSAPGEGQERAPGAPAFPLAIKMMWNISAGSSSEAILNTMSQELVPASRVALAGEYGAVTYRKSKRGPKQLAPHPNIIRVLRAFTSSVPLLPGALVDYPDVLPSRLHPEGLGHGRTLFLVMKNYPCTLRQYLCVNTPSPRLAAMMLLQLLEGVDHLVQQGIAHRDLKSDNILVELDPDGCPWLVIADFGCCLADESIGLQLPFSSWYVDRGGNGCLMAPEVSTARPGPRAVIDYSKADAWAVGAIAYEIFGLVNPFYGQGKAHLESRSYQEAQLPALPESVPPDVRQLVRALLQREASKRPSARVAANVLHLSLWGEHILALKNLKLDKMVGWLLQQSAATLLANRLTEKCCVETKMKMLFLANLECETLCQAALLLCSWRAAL

Homo sapiens = species: Homo sapiens; assay: Inhibition of human PKA assessed as residual activity at 1 uM in presence of [33P]ATP by filter binding assay relative to control
[19] = target: Ephrin type-B receptor 2 (Homo sapiens) (UniProt P29323); assay: Inhibition of human EPH-B2 assessed as residual activity at 1 uM in presence of [33P]ATP by filter binding assay relative to control
Sequence of Ephrin type-B receptor 2 (Homo sapiens) (P29323 whole entry): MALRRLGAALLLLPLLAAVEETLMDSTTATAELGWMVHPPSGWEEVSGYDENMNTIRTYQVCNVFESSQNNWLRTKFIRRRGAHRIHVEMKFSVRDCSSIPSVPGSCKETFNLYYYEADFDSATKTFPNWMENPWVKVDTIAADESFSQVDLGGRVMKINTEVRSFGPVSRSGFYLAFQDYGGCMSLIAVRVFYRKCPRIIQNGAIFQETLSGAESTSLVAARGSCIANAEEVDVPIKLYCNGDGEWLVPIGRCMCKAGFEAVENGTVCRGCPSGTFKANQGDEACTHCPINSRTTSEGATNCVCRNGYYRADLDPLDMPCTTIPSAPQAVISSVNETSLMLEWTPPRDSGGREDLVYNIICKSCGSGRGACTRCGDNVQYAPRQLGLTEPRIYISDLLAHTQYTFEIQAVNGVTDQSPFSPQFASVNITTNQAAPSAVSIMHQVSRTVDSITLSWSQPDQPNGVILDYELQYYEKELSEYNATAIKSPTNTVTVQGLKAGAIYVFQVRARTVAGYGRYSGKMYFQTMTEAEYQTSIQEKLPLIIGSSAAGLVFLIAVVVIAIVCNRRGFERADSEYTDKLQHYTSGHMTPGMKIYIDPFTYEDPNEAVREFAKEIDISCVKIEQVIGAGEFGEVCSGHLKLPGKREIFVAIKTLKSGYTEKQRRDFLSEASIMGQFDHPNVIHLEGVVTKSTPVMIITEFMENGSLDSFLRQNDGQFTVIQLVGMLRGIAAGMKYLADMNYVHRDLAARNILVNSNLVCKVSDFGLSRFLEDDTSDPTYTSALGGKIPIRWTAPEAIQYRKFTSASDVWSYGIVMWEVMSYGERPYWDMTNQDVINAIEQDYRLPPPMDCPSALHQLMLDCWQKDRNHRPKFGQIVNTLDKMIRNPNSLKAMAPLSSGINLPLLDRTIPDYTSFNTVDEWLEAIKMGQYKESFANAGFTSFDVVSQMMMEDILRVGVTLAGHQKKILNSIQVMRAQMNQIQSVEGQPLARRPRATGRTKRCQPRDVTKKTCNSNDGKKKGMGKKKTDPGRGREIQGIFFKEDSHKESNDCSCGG

[20] = target: Tyrosine-protein kinase ABL1 (Homo sapiens) (UniProt P00519); assay: Inhibition of human ABL assessed as residual activity at 1 uM in presence of [33P]ATP by filter binding assay relative to control
[21] = target: Misshapen-like kinase 1 (Homo sapiens) (UniProt Q8N4C8); assay: Inhibition of human MINK1 assessed as residual activity at 1 uM in presence of [33P]ATP by filter binding assay relative to control
[22] = target: Tau-tubulin kinase 2 (Homo sapiens) (UniProt Q6IQ55); assay: Inhibition of human TTBK2 assessed as residual activity at 1 uM in presence of [33P]ATP by filter binding assay relative to control
Sequence of Tau-tubulin kinase 2 (Homo sapiens) (Q6IQ55 whole entry): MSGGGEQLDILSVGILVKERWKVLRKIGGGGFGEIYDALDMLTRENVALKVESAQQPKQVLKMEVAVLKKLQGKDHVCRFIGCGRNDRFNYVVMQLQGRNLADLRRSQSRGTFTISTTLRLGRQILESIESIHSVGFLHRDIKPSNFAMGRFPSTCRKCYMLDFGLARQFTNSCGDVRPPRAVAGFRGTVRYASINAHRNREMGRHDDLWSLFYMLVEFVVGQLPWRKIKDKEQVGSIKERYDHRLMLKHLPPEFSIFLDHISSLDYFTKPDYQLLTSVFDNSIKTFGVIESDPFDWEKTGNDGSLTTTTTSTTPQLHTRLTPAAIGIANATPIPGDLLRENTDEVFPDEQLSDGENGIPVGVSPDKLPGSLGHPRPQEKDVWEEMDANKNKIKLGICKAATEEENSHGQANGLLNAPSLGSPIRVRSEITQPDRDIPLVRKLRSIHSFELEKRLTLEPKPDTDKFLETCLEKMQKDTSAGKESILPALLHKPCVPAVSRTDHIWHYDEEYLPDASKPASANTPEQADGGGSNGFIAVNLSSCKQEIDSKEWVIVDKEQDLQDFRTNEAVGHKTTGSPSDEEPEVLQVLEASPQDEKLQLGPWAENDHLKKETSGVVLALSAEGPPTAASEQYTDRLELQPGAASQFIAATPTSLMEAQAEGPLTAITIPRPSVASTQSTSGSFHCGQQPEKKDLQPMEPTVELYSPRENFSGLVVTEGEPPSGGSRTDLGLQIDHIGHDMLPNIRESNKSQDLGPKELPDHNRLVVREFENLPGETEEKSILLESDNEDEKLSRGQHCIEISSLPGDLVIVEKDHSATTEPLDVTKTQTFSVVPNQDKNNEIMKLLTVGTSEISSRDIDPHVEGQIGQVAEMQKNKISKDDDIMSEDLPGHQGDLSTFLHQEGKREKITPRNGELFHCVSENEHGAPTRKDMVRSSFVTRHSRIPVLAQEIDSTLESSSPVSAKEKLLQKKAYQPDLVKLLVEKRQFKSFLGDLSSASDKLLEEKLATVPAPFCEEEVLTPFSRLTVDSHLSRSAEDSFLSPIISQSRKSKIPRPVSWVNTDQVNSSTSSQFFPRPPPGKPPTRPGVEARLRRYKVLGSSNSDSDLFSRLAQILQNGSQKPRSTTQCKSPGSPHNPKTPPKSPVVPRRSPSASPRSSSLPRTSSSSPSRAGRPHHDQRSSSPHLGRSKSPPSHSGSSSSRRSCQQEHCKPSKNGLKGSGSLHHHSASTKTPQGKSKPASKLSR

[23] = target: Tyrosine-protein kinase ZAP-70 (Homo sapiens) (UniProt P43403); assay: Inhibition of human ZAP70 assessed as residual activity at 1 uM in presence of [33P]ATP by filter binding assay relative to control
[24] = target: Serine/threonine-protein kinase PAK 6 (Homo sapiens) (UniProt Q9NQU5); assay: Inhibition of human PAK6 assessed as residual activity at 1 uM in presence of [33P]ATP by filter binding assay relative to control

Question: Which results are given for `NCCCC[C@H](NC(=O)[C@H](CC(=O)O)NC(=O)[C@H](CC(=O)O)NC(=O)[C@H](CC(=O)O)NC(=O)[C@H](CC(=O)O)NC(=O)[C@H](CC(=O)O)NC(=O)[C@H](CC(=O)O)NC(=O)CCCCCCCCOc1nc2cc(C(=O)O)ccc2c2cnccc12)C(=O)O` (X1-DDDDDDK-OH)?
Answer: Activity [1]: 5%; Activity [2]: 9%; Activity [3]: 11%; Activity [4]: 22%; Activity [5]: 23%; Activity [6]: 26%; Activity [7]: 34%; Activity [8]: 39%; Activity [9]: 64%; Activity [10]: 65%; Activity [11]: 67%; Activity [12]: 79%; Activity [13]: 81%; Activity [14]: 85%; Activity [15]: 86%; Activity [16]: 86%; Activity [17]: 87%; Activity [18]: 93%; Activity (Homo sapiens): 94%; Activity [19]: 96%; Activity [20]: 100%; Activity [21]: 100%; Activity [22]: 101%; Activity [23]: 103%; Activity [24]: 110%
